The nature of data set [1]: Glucose tolerance test in high fat diet-fed mice. Format: in vivo, C57BL/6 adult male mice. As for the experimental part:
(§1) All procedures were conducted in compliance with protocols approved by the Animal Care Committee of the University of Crete, School of Medicine (Facility number EL91-BIOexp-06), in conjunction with the Veterinary Department of the Region of Crete, Heraklion, Crete, Greece. C57BL/6 adult male mice were maintained in a 12 h day/night cycle and 21-23 °C conditions. Mice were provided with water and either normal fat diet, or high fat diet (60% energy from fat) ad libitum. All mice were weighed every 48 h.
(§2) Neorogioldiol was first dissolved in 90% carbowaxTM 400, 10% (v/v) absolute ethanol solution and then diluted 1:10 in water for injection. A dose of 0.25 mg neorogioldiol in a total volume of 200 µl was administered intraperitoneally every 48 h in mice in high fat + neorogioldiol group starting from day 1. 4-5 mice were used per group and each experiment was performed twice.
Mice were fasted for 16 h before receiving an intraperitoneal injection of 35% dextrose (100 µl / 35 gr). Blood glucose concentrations were measured in blood collected by venous bleeding from the tail vein immediately before the injections and after 30, 60 and 120 min.

In a further data set the test system is 3T3-L1 preadipocytes. Description: Seahorse XF cell metabolism analysis (extracellular acidification rate). Format: cell-based, Mouse. Particulars: 62.5 µM for 24 h. The protocol: Seahorse XF Cell Energy Phenotype Test Kit and Seahorse XF Cell Mito Stress Test Kit were used to measure oxygen consumption rate and extracellular acidification rate on a Seahorse Bioscience XF Analyzer (Agilent Technologies). 3T3-L1 preadipocytes were seeded at 7.5×10^3 per well in growth medium in XF 96 Cell Culture Microplate (Agilent Technologies) two days prior to assay. 24 h prior to the assay, medium was changed and compound 1 was added at concentration of 62.5 µM. The day of the assay, cells were washed once and media was replaced with XF Base Medium (pH 7.4) supplemented with 1 mM pyruvate, 2 mM glutamine and 10 mM glucose. The plate was placed in a 37 °C incubator without CO2 for one hour prior to the assay. Cells were washed a second time right before starting the experiment. After measuring basal oxygen consumption rate and extracellular acidification rate, oligomycin (1.0 µM) and FCCP (1.0 µM) were introduced in real time to measure oxygen consumption rate and extracellular acidification rate under stressed condition. For the baseline extracellular acidification rate the third out of the three baseline measurements was used, while for the stressed condition, the highest measurement after the injections was used. The metabolic potential is calculated as the percentage of stressed extracellular acidification rate to baseline extracellular acidification rate.

For a further data set, the system named is 3T3-L1 cells. Description: Quantitative PCR of relative mRNA expression in cell culture samples. Format: cell-based, Mouse. Particulars: for Gapdh expression / Hk2 expression / Pfkfb3 expression: 62.5 µM for 24 h. The protocol:
Mouse 3T3-L1 preadipocytes were maintained in proliferation medium containing DMEM supplemented with 10% (v/v) heat inactivated NBCS and 1% (v/v) penicillin-streptomycin at 37 °C with 5% CO2, humidified atmosphere. Cells were seeded in T-75 flasks at a density of 25×10^4 cells/flask. Cultures never became completely confluent according to the manufacturer's instructions. They were passaged using trypsin-EDTA solution once they reached 70-80% confluency. For differentiation, 3T3-L1 cells were seeded and after 24 h (day 1), cell differentiation was induced by changing the medium to high glucose DMEM containing 10% (v/v) heat inactivated FBS, 1% penicillin-streptomycin, 10 µg/mL insulin, 0.25 µM Dexamethasone (GAP), 0.5 mM IBMX (=differentiation medium I). On day 3, the medium was changed to high glucose DMEM containing 10% FBS, 1% penicillin- streptomycin, and 10 µg/mL insulin (=differentiation medium II). Thereafter, medium was changed every other day switching between differentiation medium I and differentiation medium II until day 12 or 23, when adipocytes were harvested. Control group preadipocytes were seeded at a higher density and harvested after two days. Test compounds were administered either at the initiation of differentiation, or after 15 days of differentiation and with every medium change. To determine the effect on preadipocyte differentiation, cells were seeded and after 24 h they were treated with neorogioldiol. Neorogioldiol was maintained in the culture medium throughout cell differentiation period. To determine the effect of neorogioldiol on mature adipocytes, cells were seeded and induced to differentiate for 14 days, then on day 15 neorogioldiol was added to the differentiation medium for 24 h before cells were harvested. Each compound used was diluted in a 90% carbowax™ 400, 10% (v/v) absolute ethanol solution serving as a control solvent. The final concentration in culture was 0.09% (v/v) carbowax and 0.01% (v/v) ethanol. Compounds were used at the following concentrations: neorogioldiol (1) 62.5µM and neorogioltriol (2) 25µM.
Adipocytes and preadipocytes were harvested using the TRI Reagent®. RNA isolation was carried out according to the manufacturer's instructions. The purified RNA was quantified using the Nanodrop micro-volume spectrophotometer and 500 ng of each sample were used as a template for reverse transcription. cDNA synthesis was performed using the PrimeScriptTM RT reagent Kit (TaKaRa, RR037A) according to manufacturer's instructions. The cDNA produced by the above described procedure was diluted and used as a template for two-step quantitative PCR in a StepOnePlus™ Real-Time PCR System (Applied Biosystems™, 4376600) for a maximum of 40 cycles, as follows: start step 95 °C for 3 min, repeat steps: 95 °C for 15 s and 60 °C for 30 s. Amplification was performed using KAPA SYBR® FAST Universal qPCR kit (Kapa Biosystems, KK4618) according to manufacturer's instructions. Relative quantitative analysis was accomplished calculating fold-changes of gene expression as 2-(ΔΔCt), where ΔCt is (Ct (gene of interest) - Ct (housekeeping gene)). Ppib was used as internal control gene in 3T3L1 cells and in the fat fraction of mice abdominal fat, Rps9 was used as internal control gene in the stromal vascular fraction of mice abdominal fat and Actb was used as internal control gene in liver samples. Table 1. List of primers used for quantitative real-time PCR analysis.

The conditions of data set [2]: reference [12]; cited from earlier work.
Data set [3] in a line: High fat diet-induced obesity mouse model (weight gain, abdominal fat, spleen weight, overall toxicity). It is filed as in vivo. Particulars: high fat diet mice. As for the experimental part: as §1, §2
Abdominal fat lobes were weighed, washed in PBS, minced and dissolved with collagenase. They were incubated in 1.5mg/ml collagenase in 1% PBS-BSA, for 30 min at 37 °C. Next, homogenate was centrifuged at 800 rpm for 5 min at room temperature. The upper fatty phase, which contains the adipocytes, was collected and resuspended in TRI Reagent® and RNA isolation was carried out according to the manufacturer's instructions. The cell pellet, which is the stromal vascular fraction, was washed once with PBS and resuspended in TRI Reagent® for RNA isolation.

Where [4] appears, read: cells differentiated in the presence of compound, 12 days, 1 at 62.5 µM, 2 at 25 µM.
[5] abbreviates: differentiation in presence of serial concentrations 62.5, 31.25, 15.625, 7.81 and 3.9 µM, dose-dependent.
Where [6] appears, read: mature adipocytes: differentiated 15 days, then 62.5 µM for 8 more days.
The mark [7] stands for this setting: intraperitoneal 0.25 mg/mouse every 48 h for 35 days, vs high fat diet without neorogioldiol.

As for neorogioldiol, in data set [1] (day 16, 0.25 mg/mouse i.p. every 48 h), the “glucose intolerance (glucose tolerance test)” value was “had not developed glucose intolerance”. Also, the “glucose intolerance (glucose tolerance test)” value in data set [1] (day 34, 0.25 mg/mouse i.p. every 48 h) is given as “became glucose intolerant”. Moreover, the “basal levels of extracellular acidification rate” value in the data set with 3T3-L1 preadipocytes is given as “increasing basal levels”. For the same substance, the “metabolic potential (stressed to baseline extracellular acidification rate)” value in the data set with 3T3-L1 preadipocytes (after oligomycin and FCCP) is “decreased the metabolic potential”. Moreover, in the data set with 3T3-L1 cells (adipocytes), the Gapdh expression entry is “decreasing”, the Hk2 expression entry is “decreasing” and the Pfkfb3 expression entry is on record as “decreasing”. In the data set with 3T3-L1 cells (setting [4]), the Adipoq expression levels entry is on record as “restricted the increase”, the “Dlkl mRNA expression” value is given as “diminished”, the Lep expression levels result is reported as “restricted the increase” and the Slc2a4 expression levels result is “restricted the increase”. Further, in the data set with 3T3-L1 cells (setting [5]), the Lep levels result was “restricted the increase” and the Slc2a4 levels result is “restricted the increase”. Besides, in the data set with 3T3-L1 cells (setting [6]), the Adipoq expression entry was “decreased the expression”, the Fabp4 expression result is given as “decreased the expression” and the Pparg expression result was “decreased the expression”. In addition, in the data set with 3T3-L1 cells (preadipocytes), the Gapdh expression entry was “downregulated”, the Hk2 expression entry is recorded as “downregulated” and the Pfkfb3 expression result is reported as “downregulated”. In addition, the anti-inflammatory activity result in data set [2] was “potent anti-inflammatory activity”. Also, the “toxicity in vivo (overall)” value in data set [3] (0.25 mg/mouse i.p. every 48 h for 35 days) is on record as “did not exhibit any toxicity in vivo”. Further, in data set [3] (setting [7]), the abdominal fat mass entry is reported as “reduced abdominal fat mass” and the weight gain result is “suppressed weight gain”.

The values above are taken from patent EP4556003A1, “ANTI-OBESITY AND ANTI-DIABETIC ACTIVITY OF BROMINATED DITERPENES FROM RED ALGAE OF THE GENUS LAURENCIA AND APPLICATIONS THEREOF” (priority 2023, dated 2025).
